Data: ChEMBL document CHEMBL3813678, “Synthesis and anticancer activity of novel 4-morpholino-7,8-dihydro-5H-thiopyrano[4,3-d]pyrimidine derivatives bearing chromone moiety” (Bioorg Med Chem, 2016)

Tests used:
MCF7 = assay: Cytotoxicity against human MCF7 cells after 72 hrs by MTT assay; type: functional, cell-based
HeLa = assay: Cytotoxicity against human HeLa cells after 72 hrs by MTT assay; type: functional, cell-based
[1] = Cytotoxicity against human PC3 cells after 72 hrs by MTT assay; type: functional, cell-based, PC-3
[2] = biological target: T1, Phosphatidylinositol 4,5-bisphosphate 3-kinase catalytic subunit alpha isoform (Homo sapiens, UniProt P42336); assay: Inhibition of PI3Kalpha (unknown origin) at 10 uM using PI substrate incubated for 60 mins by kinase-glo luminescence assay
T1 sequence (P42336 whole entry, canonical isoform): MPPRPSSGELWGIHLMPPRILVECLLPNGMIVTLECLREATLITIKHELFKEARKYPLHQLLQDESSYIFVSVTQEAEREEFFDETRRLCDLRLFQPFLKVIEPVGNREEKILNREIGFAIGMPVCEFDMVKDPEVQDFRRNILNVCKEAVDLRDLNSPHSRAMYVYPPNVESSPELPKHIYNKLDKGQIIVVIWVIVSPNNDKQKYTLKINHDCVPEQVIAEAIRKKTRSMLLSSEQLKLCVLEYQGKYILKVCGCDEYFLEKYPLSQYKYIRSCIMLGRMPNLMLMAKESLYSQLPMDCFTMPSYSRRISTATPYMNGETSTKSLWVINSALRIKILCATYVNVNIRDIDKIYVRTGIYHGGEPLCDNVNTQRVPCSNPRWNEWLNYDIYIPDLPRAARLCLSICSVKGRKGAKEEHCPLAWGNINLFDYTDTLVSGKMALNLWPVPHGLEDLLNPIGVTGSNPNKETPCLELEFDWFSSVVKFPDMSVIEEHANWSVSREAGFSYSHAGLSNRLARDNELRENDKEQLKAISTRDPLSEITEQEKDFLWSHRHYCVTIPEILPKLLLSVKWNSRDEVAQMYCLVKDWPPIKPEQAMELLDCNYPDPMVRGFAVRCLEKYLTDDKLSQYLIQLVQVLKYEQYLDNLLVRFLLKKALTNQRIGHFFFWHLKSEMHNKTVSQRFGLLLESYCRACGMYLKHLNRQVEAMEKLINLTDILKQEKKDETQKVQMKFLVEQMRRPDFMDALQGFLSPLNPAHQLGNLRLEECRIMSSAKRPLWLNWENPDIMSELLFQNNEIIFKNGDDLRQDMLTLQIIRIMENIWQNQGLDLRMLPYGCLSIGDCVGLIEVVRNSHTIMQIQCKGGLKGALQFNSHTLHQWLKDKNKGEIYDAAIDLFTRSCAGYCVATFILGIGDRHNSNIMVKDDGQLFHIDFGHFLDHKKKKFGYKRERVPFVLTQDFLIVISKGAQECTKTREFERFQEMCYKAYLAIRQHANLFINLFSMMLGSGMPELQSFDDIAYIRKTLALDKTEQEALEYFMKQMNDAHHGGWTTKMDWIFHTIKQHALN

HepG2 = assay: Cytotoxicity against human HepG2 cells after 72 hrs by MTT assay; type: functional, cell-based
A549 = assay: Cytotoxicity against human A549 cells after 72 hrs by MTT assay; type: functional, cell-based
[3] = biological target: T2, Serine/threonine-protein kinase mTOR (Homo sapiens, UniProt P42345); assay: Inhibition of mTOR (unknown origin) at 10 uM using ULight4E-BP1 peptide as substrate incubated for 1 hr by TR-FRET assay
[4] = biological target: T2, Serine/threonine-protein kinase mTOR; assay: Inhibition of mTOR (unknown origin) using ULight4E-BP1 peptide as substrate incubated for 1 hr by TR-FRET assay
[5] = biological target: T1, Phosphatidylinositol 4,5-bisphosphate 3-kinase catalytic subunit alpha isoform; assay: Inhibition of PI3Kalpha (unknown origin) using PI substrate incubated for 60 mins by kinase-glo luminescence assay
[6] = Homo sapiens, MCF7, 72 h, read-out: IC50
[7] = Homo sapiens, HeLa, 72 h, read-out: IC50
[8] = Homo sapiens, PC-3, 72 h, read-out: IC50
[9] = Homo sapiens, HepG2, 72 h, read-out: IC50
[10] = Homo sapiens, A549, 72 h, read-out: IC50

| SMILES | IC50 (MCF7; [6]) [µM] | IC50 (HeLa; [7]) [µM] | IC50 [1, 8] [µM] | IC50 (HepG2; [9]) [µM] | IC50 (A549; [10]) [µM] | also measured |
| --- | --- | --- | --- | --- | --- | --- |
| O=c1c(/C=N/Nc2nc3c(c(N4CCOCC4)n2)CSCC3)coc2ccc([N+](=O)[O-])cc12 | 21.4 | 11.5 | 34.9 | 12.7 | 19.8 | inhibition [2]: 16.7%; inhibition [3]: 66.4% |
| CC(C)(C)c1ccc2occ(/C=N/Nc3nc4c(c(N5CCOCC5)n3)CS(=O)(=O)CC4)c(=O)c2c1 | 17.8 | 15.3 | 17.9 | 14.8 | 18.4 | inhibition [2]: 13.8%; inhibition [3]: 44.7% |
| Cc1ccc2occ(/C=N/Nc3nc4c(c(N5CCOCC5)n3)CSCC4)c(=O)c2c1 | 36.6 | 15.9 | > 100 |  | 42.5 | IC50 (HepG2; hepg2): Not Active |
| CC(C)(C)c1ccc2occ(/C=N/Nc3nc4c(c(N5CCOCC5)n3)CSCC4)c(=O)c2c1 | 3.85 | 0.17 | 15.3 | 1.84 | 11.5 | inhibition [2]: 24%; inhibition [3]: 36.4% |
| O=c1c(/C=N/Nc2nc3c(c(N4CCOCC4)n2)CS(=O)(=O)CC3)coc2ccc(F)cc12 |  |  |  |  |  | IC50 (MCF7; mcf7): Not Active; IC50 ([1]; pc-3): Not Active; IC50 (A549; a549): Not Active |
| Cc1ccc2occ(/C=N/Nc3nc4c(c(N5CCOCC5)n3)CS(=O)(=O)CC4)c(=O)c2c1 | 22.1 | 19.2 | 38 | 23.4 | 20.8 |  |
| O=c1c(/C=N/Nc2nc3c(c(N4CCOCC4)n2)CSCC3)coc2ccc(Cl)cc12 |  | 13.4 | 32.2 |  | > 100 | IC50 (MCF7; mcf7): Not Active; IC50 (HepG2; hepg2): Not Active |
| O=C(O)c1ccc2occ(/C=N/Nc3nc4c(c(N5CCOCC5)n3)CSCC4)c(=O)c2c1 | 11.8 | 10.3 | 14.3 | 8.77 | 10.5 | IC50 ([4]; read-out: IC50): 1.1 µM; IC50 ([5]; read-out: IC50): 0.92 µM |
| O=c1c(/C=N/Nc2nc3c(c(N4CCOCC4)n2)CSCC3)coc2ccc(O)cc12 |  |  | > 100 |  | > 100 | IC50 (MCF7; mcf7): Not Active; IC50 (HeLa; hela): Not Active; IC50 (HepG2; hepg2): Not Active |
| CS(=O)(=O)N1CCN(Cc2cc3nc(-c4cccc5[nH]ncc45)nc(N4CCOCC4)c3s2)CC1 [PICTILISIB] | 0.07 |  | 0.2 |  | 6.99 |  |
| O=c1c(/C=N/Nc2nc3c(c(N4CCOCC4)n2)CS(=O)(=O)CC3)coc2ccc([N+](=O)[O-])cc12 |  |  |  |  |  | IC50 (MCF7; mcf7): Not Active; IC50 ([1]; pc-3): Not Active; IC50 (A549; a549): Not Active |
| O=c1c(/C=N/Nc2nc3c(c(N4CCOCC4)n2)CSCC3)coc2ccc(Br)cc12 | > 100 | > 100 | > 100 | > 100 | > 100 |  |
| O=c1c(/C=N/Nc2nc3c(c(N4CCOCC4)n2)CSCC3)coc2ccc(F)cc12 | 11.3 | 0.38 | 83.9 | 0.28 | 6.9 | IC50 [4]: Not Active |
| O=c1c(/C=N/Nc2nc3c(c(N4CCOCC4)n2)CS(=O)(=O)CC3)coc2ccc(O)cc12 |  |  |  |  |  | IC50 (MCF7; mcf7): Not Active; IC50 ([1]; pc-3): Not Active; IC50 (A549; a549): Not Active |
| O=C(O)c1ccc2occ(/C=N/Nc3nc4c(c(N5CCOCC5)n3)CS(=O)(=O)CC4)c(=O)c2c1 |  |  |  |  |  | IC50 (MCF7; mcf7): Not Active; IC50 ([1]; pc-3): Not Active; IC50 (A549; a549): Not Active |
| CCc1ccc2occ(/C=N/Nc3nc4c(c(N5CCOCC5)n3)CS(=O)(=O)CC4)c(=O)c2c1 | 28.9 | 20.2 | 30.2 | 25.9 | 26.4 |  |
| O=c1c(/C=N/Nc2nc3c(c(N4CCOCC4)n2)CS(=O)(=O)CC3)coc2ccc(Br)cc12 | 60.3 |  | 65.1 |  | 50.5 | IC50 (HeLa; hela): Not Active; IC50 (HepG2; hepg2): Not Active |
| CC(C)c1ccc2occ(/C=N/Nc3nc4c(c(N5CCOCC5)n3)CS(=O)(=O)CC4)c(=O)c2c1 | 27.3 | 26.5 | 34.9 | 27.9 | 25.7 |  |
| O=c1c(/C=N/Nc2nc3c(c(N4CCOCC4)n2)CS(=O)(=O)CC3)coc2ccc(Cl)cc12 | 23.5 | 30.4 | 46.9 | 38.1 | 17.9 |  |
| CCc1ccc2occ(/C=N/Nc3nc4c(c(N5CCOCC5)n3)CSCC4)c(=O)c2c1 | 11.2 | 10.1 | 23.8 | 13.9 | 21.1 | IC50 [4]: Not Active |
| CC(C)c1ccc2occ(/C=N/Nc3nc4c(c(N5CCOCC5)n3)CSCC4)c(=O)c2c1 | 13.1 | 15.5 | 17.3 | 9.95 | 9.5 | IC50 [4]: Not Active |
| COc1cc(/C=N/Nc2nc3c(c(N4CCOCC4)n2)CSCC3)cc(OC)c1O | 5.84 |  |  |  | 7.43 | IC50 [5]: Not Active |
